Peptide text beside a SMILES is read from it. * marks the point of attachment. Cbz = O=C(OCc1ccccc1)*
How the values were obtained:
ISG15-conjugates = experiment: Western blot of ISG15-conjugates in MEFs treated with proteasome inhibitor; format: cell-based, murine
Protocol: (§1) (A) UBP43^+/+ and UBP43^−/− MEFs were incubated with or without IFNβ for 18 hours and were treated with lactacystin at a final concentration of 5 μM for 3 hours. An equal volume of DMSO (vehicle) was added to control samples. Cell lysates (10 μg total protein) were resolved on 8-18% minigel and western blot was performed with rabbit anti-mouse ISG15. The membrane was stripped and reprobed with anti-Ub serum. (B) UBP43^+/+ (not treated with IFN) and UBP43^−/− (incubated with IFNβ for 18 hours) MEFs were treated with MG132 at a final concentration of 10 μM for 3 hours. An equal volume of DMSO (vehicle) was added to control samples. PLCγ1 was immunoprecipitated and immunocomplexes were resolved on 7% minigel. The membrane was probed with anti-ISG15 and, after stripping, was reprobed with anti-PLCγ1. Positions of unmodified PLCγ1 are shown with arrows and positions of conjugates are shown with asterisks. Cell lysates (10 μg total protein) were also resolved on an identical minigel to assess amount of ISG15- and Ub-conjugates. Western blot was performed with rabbit anti-mouse ISG15 and after stripping the membrane was reprobed with anti-Ub serum.
(§2) Wild type and UBP43^−/− murine embryonic fibroblasts (MEFs) were generated from a litter of embryos on embryonic day 12.5. Briefly, embryonic torsos were minced and trypsinized for 30 min at 37° C. […]

ubiquitinated proteins = experiment: Western blot of ubiquitinated proteins in MEFs treated with proteasome inhibitor; format: cell-based, murine; conditions: UBP43−/− and UBP43+/+ MEFs, uninduced or IFNβ induced; lactacystin 5 μM for 3 hours
Protocol: as §1, §2

| Structure (SMILES) | level of ISG15-conjugation (ISG15-conjugates; UBP43+/+ (no IFN) and UBP43−/− (IFNβ 18 hours) MEFs, MG132 10 μM for 3 hours) | amount of ISG15-conjugates, treated vs untreated samples (ISG15-conjugates; UBP43−/− and UBP43+/+ MEFs, uninduced or IFNβ induced, lactacystin 5 μM for 3 hours) | amount of ubiquitinated proteins (ubiquitinated proteins) |
| --- | --- | --- | --- |
| CC(C)C[C@@H](C=O)NC(=O)[C@H](CC(C)C)NC(=O)[C@H](CC(C)C)NC(=O)OCc1ccccc1 [MG132] (Cbz-Leu-Leu-Leu-aldehyde) | do not affect | – | – |
| CC(=O)N[C@@H](CSC(=O)[C@]1([C@@H](O)C(C)C)NC(=O)[C@H](C)[C@@H]1O)C(=O)O [lactacystin] | – | no difference | increase |
